Values quoted from earlier work as cited in PMC5152921, “Evolutionary and Functional Diversification of the Vitamin D Receptor-Lithocholic Acid Partnership” (PLoS ONE, 2016).

System: all eight VDRs tested
Parameters: method as in PMID 25279795, PMID 25855982
Settings: transient transactivation assays; cited from earlier work

SMILES: C=C1/C(=C\C=C2/CCC[C@]3(C)[C@@H]([C@H](C)CCCC(C)(C)O)CC[C@@H]23)C[C@@H](O)C[C@@H]1O [1,25D3, 1α,25-dihydroxyvitamin D3]
- VDR transactivation: activates all eight VDRs tested
